Measurements reported in patent US9938269B2, “Inhibitor compounds of phosphodiesterase type 10A” (ABBVIE INC., priority 2011, dated 2018).

Assays:
[1] = target: T1, PDE10A (human) (Homo sapiens, UniProt Q9Y233); experiment: Measurement of PDE activity (HTRF cAMP kit), human PDE10A; format: biochemical; conditions: PDE enzymatic reaction, substrate 20 nM for PDE10, 60 minutes at 29 C
T1 construct: purchased BPS Bioscience
Outline: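 HTRF detection of cAMP left after hydrolysis, expressed as percent of uninhibited control to derive IC50. Reaction: serially diluted inhibitor mixed with recombinant enzyme, started with 20 nM cAMP, 60 min at 29 °C in Tris-HCl pH 7.5 buffer containing MgCl2 and BSA.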

[2] = Determination of the microsomal half-life, rat liver microsomes; conditions: rat, liver microsomes, pH 7.4
[3] = Determination of the microsomal half-life, human liver microsomes; conditions: human, liver microsomes, pH 7.4

T1 sequence (Q9Y233 whole entry): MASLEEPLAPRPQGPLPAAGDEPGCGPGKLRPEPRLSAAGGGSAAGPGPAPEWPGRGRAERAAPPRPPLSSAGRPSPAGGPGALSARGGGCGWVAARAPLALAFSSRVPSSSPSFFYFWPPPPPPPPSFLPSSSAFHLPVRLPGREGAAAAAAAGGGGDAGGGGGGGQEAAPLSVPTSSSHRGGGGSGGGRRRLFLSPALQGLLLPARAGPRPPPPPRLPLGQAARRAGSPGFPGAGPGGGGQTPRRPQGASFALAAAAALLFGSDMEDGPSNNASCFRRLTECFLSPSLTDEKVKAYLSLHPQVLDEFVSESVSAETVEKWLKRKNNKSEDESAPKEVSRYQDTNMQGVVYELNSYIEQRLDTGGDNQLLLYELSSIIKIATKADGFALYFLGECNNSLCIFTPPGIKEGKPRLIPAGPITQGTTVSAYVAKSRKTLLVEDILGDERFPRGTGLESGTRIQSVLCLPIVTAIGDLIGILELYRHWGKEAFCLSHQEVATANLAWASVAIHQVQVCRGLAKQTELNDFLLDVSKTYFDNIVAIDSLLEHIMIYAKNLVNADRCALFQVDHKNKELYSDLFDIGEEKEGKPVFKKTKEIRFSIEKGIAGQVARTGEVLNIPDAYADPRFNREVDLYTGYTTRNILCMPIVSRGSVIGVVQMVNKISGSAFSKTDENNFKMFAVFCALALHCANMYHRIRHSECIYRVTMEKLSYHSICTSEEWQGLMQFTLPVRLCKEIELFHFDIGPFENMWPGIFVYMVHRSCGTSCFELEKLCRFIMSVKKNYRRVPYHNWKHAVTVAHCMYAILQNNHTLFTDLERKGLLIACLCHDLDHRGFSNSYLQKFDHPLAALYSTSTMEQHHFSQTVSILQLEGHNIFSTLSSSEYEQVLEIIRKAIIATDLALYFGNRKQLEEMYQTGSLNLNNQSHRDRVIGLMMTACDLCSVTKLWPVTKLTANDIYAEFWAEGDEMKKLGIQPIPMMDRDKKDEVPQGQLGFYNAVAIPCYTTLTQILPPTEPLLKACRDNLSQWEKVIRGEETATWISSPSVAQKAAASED

IC50 [1] | microsomal CLint at 0.5 μM [2] | microsomal CLint at 0.5 μM [3] | SMILES
< 100 nM | < 100 µL/min/mg | > 220 µL/min/mg | COc1ccc(-c2ccncc2)c2c1CN(CCc1nc3ccccc3n1C)C2=O [Example 370, 4-Methoxy-2-[2-(1-methyl-1H-benzoimidazol-2-yl)-ethyl]-7-pyridin-4-yl-2,3-dihydro-isoindol-1-one]
< 100 nM | < 100 µL/min/mg | > 220 µL/min/mg | COc1ccc(N2CCOCC2)c2c1CN(CCc1nc3ccccc3n1C)C2=O [Example 371, 4-Methoxy-2-[2-(1-methyl-1H-benzoimidazol-2-yl)-ethyl]-7-morpholin-4-yl-2,3-dihydro-isoindol-1-one]
< 100 nM | < 100 µL/min/mg | < 100 µL/min/mg | COc1ccc(-c2cn[nH]c2)c2c1CN(CCc1cn3ccccc3n1)C2=O [Example 372, 2-(2-Imidazo[1,2-a]pyridin-2-yl-ethyl)-4-methoxy-7-(1H-pyrazol-4-yl)-2,3-dihydro-isoindol-1-one]
< 100 nM | < 100 µL/min/mg | < 100 µL/min/mg | COc1ccc(-c2ccnn2C)c2c1CN(CCc1cn3ccccc3n1)C2=O [Example 373, 2-(2-Imidazo[1,2-a]pyridin-2-yl-ethyl)-4-methoxy-7-(2-methyl-2H-pyrazol-3-yl)-2,3-dihydro-isoindol-1-one]
< 100 nM | < 100 µL/min/mg | < 100 µL/min/mg | COc1ccc(-c2ccncc2)c2c1CN(CCc1cn3ccccc3n1)C2=O [Example 374, 2-(2-Imidazo[1,2-a]pyridin-2-yl-ethyl)-4-methoxy-7-pyridin-4-yl-2,3-dihydro-isoindol-1-one]
< 100 nM | < 100 µL/min/mg | < 100 µL/min/mg | O=C1c2c(-c3ccncc3)ccnc2CN1CCc1nc2ccccc2s1 [Example 375, 6-(2-Benzothiazol-2-yl-ethyl)-4-pyridin-4-yl-6,7-dihydro-pyrrolo[3,4-b]pyridin-5-one]
< 100 nM | < 100 µL/min/mg | < 100 µL/min/mg | O=C1c2c(NC3COC3)ccnc2CN1CCc1nc2ccccc2s1 [Example 376, 6-(2-Benzothiazol-2-yl-ethyl)-4-(oxetan-3-ylamino)-6,7-dihydro-pyrrolo[3,4-b]pyridin-5-one]

Continued, compound first:

SMILES | IC50 [1] | microsomal CLint at 0.5 μM [2] | microsomal CLint at 0.5 μM [3]
O=C1c2c(-c3cn[nH]c3)ccnc2CN1CCc1cn2ccccc2n1 [Example 365, 6-(2-Imidazo[1,2-a]pyridin-2-yl-ethyl)-4-(1H-pyrazol-4-yl)-6,7-dihydro-pyrrolo[3,4-b]pyridin-5-one] | < 100 nM | 100 to 220 µL/min/mg | < 100 µL/min/mg
O=C(O)C1CCN(c2ccnc3c2C(=O)N(CCc2ccc4ccccc4n2)C3)CC1 [Example 366, 1-[5-Oxo-6-(2-quinolin-2-yl-ethyl)-6,7-dihydro-5H-pyrrolo[3,4-b]pyridin-4-yl]-piperidine-4-carboxylic acid] | 100 to 200 nM | < 100 µL/min/mg | < 100 µL/min/mg
Cn1c(CCN2Cc3nccc(-c4ccncc4)c3C2=O)nc2ccccc21 [Example 367, 6-[2-(1-Methyl-1H-benzoimidazol-2-yl)-ethyl]-4-pyridin-4-yl-6,7-dihydro-pyrrolo[3,4-b]pyridin-5-one] | < 100 nM | < 100 µL/min/mg | < 100 µL/min/mg
Cn1c(CCN2Cc3nccc(-c4cccnc4)c3C2=O)nc2ccccc21 [Example 368, 6-[2-(1-Methyl-1H-benzoimidazol-2-yl)-ethyl]-4-pyridin-3-yl-6,7-dihydro-pyrrolo[3,4-b]pyridin-5-one] | < 100 nM | < 100 µL/min/mg | < 100 µL/min/mg
O=C1c2c(-c3ccncc3)ccnc2CN1CCc1cn2ccccc2n1 [Example 369, 6-(2-Imidazo[1,2-a]pyridin-2-yl-ethyl)-4-pyridin-4-yl-6,7-dihydro-pyrrolo[3,4-b]pyridin-5-one] | < 100 nM | < 100 µL/min/mg | < 100 µL/min/mg
